In patent publication EP0089860A1, “Levogyrous isomer of mequitazine, process for its preparation and pharmaceutical preparations containing it” (priority 1982, dated 1983):

Test system: souris
Test: Acute toxicity in the mouse
Format: in vivo
Conditions: comparison of composé (Ia) and Méquitazine

Row | SMILES | toxicité aiguë
1 | c1ccc2c(c1)Sc1ccccc1N2CC1CN2CCC1CC2 (racemic) [Méquitazine racémique, [(aza-1 bicyclo(2,2,2)octyl-3)méthyl]-10 10H-phénothiazine] | sensiblement identiques
2 | c1ccc2c(c1)Sc1ccccc1N2C[C@@H]1CN2CCC1CC2 [Composé (Ia), [(aza-1 bicyclo(2,2,2)octyl-3 (S))méthyl]-10 10H-phénothiazine] | sensiblement identiques
